Laboratory results as given in patent publication US4914104A, “Imidazo [1,5-a]pyrimidine derivatives and process for their preparation” (Kyorin Pharmaceutical Co., Ltd., priority 1984, dated 1990).
≈ marks a conversion by molar mass, not a printed value.

How the values were obtained:
Test in all cases: Antifungal activity, standard agar dilution streak method
Assay type in all cases: cell-based
[1] = test system: Candida albicans KYF-602; details: KYF602, read-out: Minimum inhibitory concentration
Description: (§1) The antifungal activity of the compound of the present invention was assayed by the standard agar dilution streak method against fungi.

[2] = test system: Microsporum canis 200100; details: read-out: Minimum inhibitory concentration
Description: as §1

[3] = test system: Candida albicans IFO-1388; details: IFO1388, read-out: Minimum inhibitory concentration
Description: as §1

[4] = test system: Candida albicans IFO-1594; details: IFO1594, read-out: Minimum inhibitory concentration
Description: as §1

[5] = test system: Candida albicans 3147; details: read-out: Minimum inhibitory concentration
Description: as §1

[6] = test system: Trichophyton mentagrophytes MTU-19005; details: MTU19005, read-out: Minimum inhibitory concentration
Description: as §1

[7] = test system: Candida albicans MTU-12124; details: MTU12124, read-out: Minimum inhibitory concentration
Description: as §1

[8] = test system: Trichophyton mentagrophytes MTU-19003; details: MTU19003, read-out: Minimum inhibitory concentration
Description: as §1

[9] = test system: Aspergillus fumigatus MTU-06002; details: MTU06002, read-out: Minimum inhibitory concentration
Description: as §1

[10] = test system: Candida stellatidea IFO-1398; details: IFO1398, read-out: Minimum inhibitory concentration
Description: as §1

Row | MIC [1] | MIC [2] | MIC [3] | MIC [4] | MIC [5] | MIC [6] | MIC [7] | MIC [8] | MIC [9] | MIC [10] | Structure (SMILES)
1 | 12.5 mg/L (≈ 46.3 µM) | 1.56 mg/L (≈ 5.77 µM) | 6.25 mg/L (≈ 23.1 µM) | 3.13 mg/L (≈ 11.6 µM) | 3.13 mg/L (≈ 11.6 µM) | 0.78 mg/L (≈ 2.89 µM) | 6.25 mg/L (≈ 23.1 µM) | 1.56 mg/L (≈ 5.77 µM) | 3.13 mg/L (≈ 11.6 µM) | 6.25 mg/L (≈ 23.1 µM) | Clc1cc(Cl)n2c(-c3ccsc3)ncc2n1 [Exp. 5]
2 | 3.13 mg/L (≈ 8.97 µM) | 0.78 mg/L (≈ 2.23 µM) | 0.78 mg/L (≈ 2.23 µM) | 3.13 mg/L (≈ 8.97 µM) | 0.78 mg/L (≈ 2.23 µM) | 0.78 mg/L (≈ 2.23 µM) | 0.78 mg/L (≈ 2.23 µM) | 1.56 mg/L (≈ 4.47 µM) | 3.13 mg/L (≈ 8.97 µM) | 0.78 mg/L (≈ 2.23 µM) | Clc1cc(Cl)n2c(-c3ccc(Br)s3)ncc2n1 [Exp. 6]
3 | 0.39 mg/L (≈ 1.28 µM) |  | 0.78 mg/L (≈ 2.56 µM) | 0.2 mg/L (≈ 0.657 µM) | 0.2 mg/L (≈ 0.657 µM) | 0.78 mg/L (≈ 2.56 µM) | 1.56 mg/L (≈ 5.12 µM) | 0.78 mg/L (≈ 2.56 µM) |  | 0.78 mg/L (≈ 2.56 µM) | Clc1cc(Cl)n2c(-c3ccc(Cl)s3)ncc2n1 [Exp. 7]
4 | 3.13 mg/L (≈ 10.5 µM) | 0.78 mg/L (≈ 2.61 µM) | 3.13 mg/L (≈ 10.5 µM) | 3.13 mg/L (≈ 10.5 µM) | 3.13 mg/L (≈ 10.5 µM) | 0.78 mg/L (≈ 2.61 µM) | 12.5 mg/L (≈ 41.9 µM) | 0.78 mg/L (≈ 2.61 µM) | 6.25 mg/L (≈ 20.9 µM) | 6.25 mg/L (≈ 20.9 µM) | Clc1cc(Cl)n2c(-c3ccccc3)nc(Cl)c2n1 [Exp. 13, 2,4,8-trichloro-6-phenylimidazo[1,5-a]pyrimidine]
5 | 6.25 mg/L (≈ 16.6 µM) |  | 0.78 mg/L (≈ 2.07 µM) | 1.56 mg/L (≈ 4.13 µM) | 1.56 mg/L (≈ 4.13 µM) | 3.13 mg/L (≈ 8.29 µM) | 3.13 mg/L (≈ 8.29 µM) | 3.13 mg/L (≈ 8.29 µM) |  | 0.39 mg/L (≈ 1.03 µM) | Clc1cc(Cl)n2c(-c3ccc(Br)cc3)nc(Cl)c2n1 [Exp. 17]
6 | 25 mg/L (≈ 72 µM) |  | 0.2 mg/L (≈ 0.576 µM) | 3.13 mg/L (≈ 9.02 µM) | 1.56 mg/L (≈ 4.5 µM) | 1.56 mg/L (≈ 4.5 µM) | 6.25 mg/L (≈ 18 µM) | 3.13 mg/L (≈ 9.02 µM) |  | 0.78 mg/L (≈ 2.25 µM) | Clc1ccc(Cc2nc(Cl)c3nc(Cl)cc(Cl)n23)cc1 [compound 18]

More lines, now with the values behind:

Row | Structure (SMILES) | MIC [1] | MIC [2] | MIC [3] | MIC [4] | MIC [5] | MIC [6] | MIC [7] | MIC [8] | MIC [9] | MIC [10]
7 | Clc1cc(Cl)n2c(-c3cccs3)ncc2n1 [Exp. 1, 2,4-dichloro-6-(2-thienyl)imidazo[1,5-a]pyrimidine] | 6.25 mg/L (≈ 23.1 µM) | 1.56 mg/L (≈ 5.77 µM) | 1.56 mg/L (≈ 5.77 µM) | 1.56 mg/L (≈ 5.77 µM) | 3.13 mg/L (≈ 11.6 µM) | 1.56 mg/L (≈ 5.77 µM) | 6.25 mg/L (≈ 23.1 µM) | 1.56 mg/L (≈ 5.77 µM) | 6.25 mg/L (≈ 23.1 µM) | 1.56 mg/L (≈ 5.77 µM)
8 | Clc1cc(Cl)n2c(-c3ccco3)ncc2n1 [Exp. 3] | 12.5 mg/L (≈ 49.2 µM) | 1.56 mg/L (≈ 6.14 µM) | 3.13 mg/L (≈ 12.3 µM) | 3.13 mg/L (≈ 12.3 µM) | 3.13 mg/L (≈ 12.3 µM) | 3.13 mg/L (≈ 12.3 µM) | 6.25 mg/L (≈ 24.6 µM) | 3.13 mg/L (≈ 12.3 µM) | 12.5 mg/L (≈ 49.2 µM) | 3.13 mg/L (≈ 12.3 µM)
9 | Clc1cc(Cl)n2c(Cc3cccs3)ncc2n1 [Exp. 4] | 6.25 mg/L (≈ 22 µM) | 1.56 mg/L (≈ 5.49 µM) | 6.25 mg/L (≈ 22 µM) | 3.13 mg/L (≈ 11 µM) | 3.13 mg/L (≈ 11 µM) | 1.56 mg/L (≈ 5.49 µM) | 6.25 mg/L (≈ 22 µM) | 1.56 mg/L (≈ 5.49 µM) | 12.5 mg/L (≈ 44 µM) | 3.13 mg/L (≈ 11 µM)
10 | Cc1ccc(-c2ncc3nc(Cl)cc(Cl)n23)s1 [Exp. 8] | 6.25 mg/L (≈ 22 µM) |  | 6.25 mg/L (≈ 22 µM) | 6.25 mg/L (≈ 22 µM) | 1.56 mg/L (≈ 5.49 µM) | 1.56 mg/L (≈ 5.49 µM) | 3.13 mg/L (≈ 11 µM) | 1.56 mg/L (≈ 5.49 µM) |  | 1.56 mg/L (≈ 5.49 µM)
11 | Clc1cc(Cl)n2c(C3CCCCC3)nc(Cl)c2n1 [compound 19] | 1.56 mg/L (≈ 5.12 µM) |  | 0.2 mg/L (≈ 0.657 µM) | 1.56 mg/L (≈ 5.12 µM) | 0.78 mg/L (≈ 2.56 µM) | 1.56 mg/L (≈ 5.12 µM) | 1.56 mg/L (≈ 5.12 µM) | 3.13 mg/L (≈ 10.3 µM) |  | 1.56 mg/L (≈ 5.12 µM)
